Where no end group is shown, it is not given here.
Key:
Format in all cases: cell-based
E. coli (NIH-JC2) = conditions: for Antimicrobial activities (MIC in μM) E. coli: NIH-JC2, 24 h
Procedure: (§1) The two bacterial strains (S. aureus, E. coli) were subcultured from storage media to agar plate media (“Mueller Hinton Agar” available from DIFCO), then inoculated into liquid media (“Mueller Hinton broth II” available from DIFCO) and cultured at 30° C. or 37° C. for 24 hours. Subsequently, the aforementioned medium was added to the culture media to dilute and prepare inocula at bacterial concentrations of 2×10^5 cells/mL.
(§2) Antimicrobial activity tests were conducted as follows.
(§3) The peptide-containing solutions prepared to the respective concentrations were aliquoted into 96-well microplates at 20 μL per well. In test sections against the fungus, 80 μL of the MOPS-buffered RPMI1640 medium was added to each well. In test sections against the bacteria, 80 μL of the liquid medium (Mueller Hinton broth II) was added to each well.
(§4) Subsequently, 100 μL of one of the inocula was added to each well and incubation was started in an incubator at 30° C. or 37° C. After 24 hours, the multiplication (growth) of the microorganisms was analyzed by measurements of turbidity (OD600).

S. aureus (209P) = conditions: for Antimicrobial activities (MIC in μM) S. aureus: 209P, 24 h
Procedure: as §1, §2, §3, §4

C. albicans (NBRC-1594) = conditions: for Antimicrobial activities (MIC in μM) C. albicans: NBRC-1594, 24 h
Procedure: On the other hand, with respect to the one fungus strain (C. albicans), the surface of a slant culture was washed with a physiological saline containing 0.1% Tween® 80 to prepare a conidial suspension. The suspension was filtered with a Falcon® cell strainer and diluted with a MOPS-buffered RPMI1640 medium to prepare an inoculum at a fungus concentration of 2×10^4 cells/mL.
as §2, §3, §4

[1] = summary of Table 2, all microorganism strains

Sequence	Antimicrobial activities (MIC in μM) E. coli (E. coli (NIH-JC2)) [µM]	Antimicrobial activities (MIC in μM) S. aureus (S. aureus (209P)) [µM]	Antimicrobial activities (MIC in μM) C. albicans (C. albicans (NBRC-1594)) [µM]	Antimicrobial activity in words, E. coli (E. coli (NIH-JC2); [1])	Antimicrobial activity in words, S. aureus (S. aureus (209P); [1])	Antimicrobial activity in words, C. albicans (C. albicans (NBRC-1594); [1])
MAATGTAAAAATGKLLVLLLLGLTAPAAA [Sample 6]	16	8	16			
MAATGTAAAAATGRLLLLLLVGLTAPALA [Sample 5]	16	8	16			
MGPASPAARGLSRRPGQPPLPLLLPLLLLLLRAQPAIG [Sample 3]	16	4	16			
MGPTSPAARGQGRRWRPPLPLLLPLSLLLLRAQLAVG [Sample 4]	16	4	16			
MLPGLALLLLAAWTARA [Sample 1]	32	16	32			
MLPSLALLLLAAWTVRA [Sample 2]	32	16	32			
TLHQQCIRVLKNNID [Sample 7, reference compound]	>256	>256	>256	no antimicrobial activities were observed	no antimicrobial activities were observed	no antimicrobial activities were observed

— US9370182B2, “Antimicrobial peptide and use thereof” (TOAGOSEI CO., LTD., priority 2012, dated 2016)
